Patent US20020168426A1, “Composition comprising extracts of flos lonicerae, fructus forsythiae and radix scutellariae, uses and preparation thereof” (priority 2000, published 2002)
Where a name gives a salt, the structure may show the parent alone.

Assays:
[1] = system: ileum contraction induced by histamine; experiment: Anti-anaphylaxis test: histamine-induced contraction of isolated ileum; parameters: species or system guinea pig
Method: A three-color guinea pig was used in the following experiment. The extracts of Flos Lonicerae, Fructus Forsythiae and Radix Scutellariae, both with supercritical fluid extraction and with subboiling aqueous extraction, were used as test drugs. Ebalin, an antihistamine, was used as the control drug.
The ileum of a guinea pig was taken and hung on a Magnus' bath. The basic contraction frequency of the ileum was recorded with the MacLab method. There was a total of four groups involved in this experiment: the histamine alone, the histamine plus Ebalin, the histamine plus the supercritical extract of Flos Lonicerae, Fructus Forsythiae and Radix Scutellariae, and the histamine plus sub-boiling aqueous extract. The test curves were respectively recorded after the administration of the histamine and the other test drugs. The inhibitory rate and exciting rate were calculated with the following formula: [formula]

RSV [2] = experiment: Inhibitory effect for virus, Cytopathic Effect (CPE) method, monolayer Holn cells; assay type: cell-based; parameters: key: “−”: Virus proliferation was inhibited and no pathologic change was found in the cells.; “+”: The cell had pathologic change
Influenza A = experiment: as above; assay type: cell-based; parameters: key: “−”: Virus proliferation was inhibited and no pathologic change was found in the cells.; “+”: The cell had pathologic change
HSV-II = experiment: as above; assay type: cell-based; parameters: key: “−”: Virus proliferation was inhibited and no pathologic change was found in the cells.; “+”: The cell had pathologic change
ADV3 = experiment: as above; assay type: cell-based; parameters: key: “−”: Virus proliferation was inhibited and no pathologic change was found in the cells.; “+”: The cell had pathologic change
[3] = system: parainfluenza virus I (HVJ); experiment: Anti-virus test: inhibition of virus-induced cytopathy in Hep-2 cells; assay type: cell-based; settings: 125 μg/ml
herpes I virus (HSV-I) = experiment: as above; assay type: cell-based; settings: 125 μg/ml
RSV [4] = experiment: as above; assay type: cell-based; settings: 125 μg/ml
Influenza virus A3 = experiment: as above; assay type: cell-based; settings: 125 μg/ml
[5] = system: Virus Pneumonia induced by influenza; experiment: Anti-virus test in vivo: Virus Pneumonia induced by influenza; parameters: species or system Mice; settings: dosage 0.07 g/kg
Text: B. Anti-virus test in vivo

CN(C)CCC(c1ccc(Br)cc1)c1ccccn1.O=C(O)/C=C\C(=O)O (stereo not shown) [Ebalin]
133.81 ± 405.5 %: Ileum contraction with histamine plus test drug ([1]; Table 14: histamine 3.3 × 10^−6 g/ml + 1 × 10^−6 g/ml, histamine alone 235.29 ± 35.30)
181 ± 32 %: Ileum contraction with histamine plus test drug ([1]; Table 13: histamine 3.3 × 10^−6 g/ml + test drug 1 × 10^−3 g/ml, histamine alone 271 ± 42)

N=C(N)/N=C(\N)N1CCOCC1 [Moroxydine hydrochloride]
+: Inhibitory effect for the virus (CPE) (RSV [2]; 1%, 10 mg/ml) | Inhibitory effect for the virus (CPE) (RSV [2]; 5%, 50 mg/ml) | Inhibitory effect for the virus (CPE) (RSV [2]; 10%, 100 mg/ml) | Inhibitory effect for the virus (CPE) (RSV [2]; 15%, 150 mg/ml) | Inhibitory effect for the virus (CPE) (RSV [2]; 20%, 200 mg/ml) | Inhibitory effect for the virus (CPE) (Influenza A; 1%, 10 mg/ml) | Inhibitory effect for the virus (CPE) (HSV-II; 1%, 10 mg/ml) | Inhibitory effect for the virus (CPE) (HSV-II; 5%, 50 mg/ml) | Inhibitory effect for the virus (CPE) (HSV-II; 10%, 100 mg/ml) | Inhibitory effect for the virus (CPE) (HSV-II; 15%, 150 mg/ml) | Inhibitory effect for the virus (CPE) (HSV-II; 20%, 200 mg/ml) | Inhibitory effect for the virus (CPE) (ADV3; 1%, 10 mg/ml) | Inhibitory effect for the virus (CPE) (ADV3; 5%, 50 mg/ml) | Inhibitory effect for the virus (CPE) (ADV3; 10%, 100 mg/ml) | Inhibitory effect for the virus (CPE) (ADV3; 15%, 150 mg/ml) | Inhibitory effect for the virus (CPE) (ADV3; 20%, 200 mg/ml)
−: Inhibitory effect for the virus (CPE) (Influenza A; 5%, 50 mg/ml) | Inhibitory effect for the virus (CPE) (Influenza A; 10%, 100 mg/ml) | Inhibitory effect for the virus (CPE) (Influenza A; 15%, 150 mg/ml) | Inhibitory effect for the virus (CPE) (Influenza A; 20%, 200 mg/ml)

NC(=O)c1ncn([C@@H]2O[C@H](CO)[C@@H](O)[C@H]2O)n1 [Ribavirin]
+: Anti-virus effect of Ribavirin [3] | Anti-virus effect of Ribavirin (herpes I virus (HSV-I)) | Anti-virus effect of Ribavirin (RSV [4]) | Anti-virus effect of Ribavirin (Influenza virus A3)
24.68%: Inhibitive rate (100%) [5]
1.16 ± 0.15: Lung index (X ± SD) ([5]; infection control 1.54 ± 0.25)
